Test results as given in PubChem BioAssay (NCI).
Where “and” joins values, the source holds several entries; their conditions need not be identical. Equal values may be shown once.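 Five compound concentrations were applied to cells in 96-well plates for 48 hours; endpoints were derived by simple linear interpolation of the resulting dose-response curve. GI50 is the concentration that inhibits growth by half. TGI is the concentration that stops growth completely.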

What was measured:
Test in all cases: inhibition of tumour cell growth, NCI panel, 48 h
A498 renal = test system: A498 renal
ACHN renal = test system: ACHN renal
DU-145 prostate = test system: DU-145 prostate
EKVX NSCLC = test system: EKVX NSCLC
K-562 leukemia = test system: K-562 leukemia
MOLT-4 leukemia = test system: MOLT-4 leukemia
NCI-H23 lung = test system: NCI-H23 lung
PC-3 prostate = test system: PC-3 prostate
SF-268 CNS = test system: SF-268 CNS
T-47D breast = test system: T-47D breast

## OCc1ncc(-c2ccccc2)s1
A498 renal
  GI50: > 100 µM
  TGI: > 100 µM
ACHN renal
  GI50: > 100 µM
  TGI: > 100 µM
DU-145 prostate
  GI50: > 100 µM
  TGI: > 100 µM
EKVX NSCLC
  GI50: > 100 µM
  TGI: > 100 µM
K-562 leukemia
  GI50: > 100 µM
  TGI: > 100 µM
MOLT-4 leukemia
  GI50: > 100 µM
  TGI: > 100 µM
NCI-H23 lung
  GI50: > 100 µM
  TGI: > 100 µM
PC-3 prostate
  GI50: > 100 µM
  TGI: > 100 µM
SF-268 CNS
  GI50: > 100 µM
  TGI: > 100 µM
T-47D breast
  GI50: > 100 µM
  TGI: > 100 µM

## COc1cccc2c1C(=O)c1c(O)c3c(c(O)c1C2=O)C[C@@](O)(C(C)=O)C[C@@H]3OC1CC(O)C(O)C(C)O1 (some centres undefined)
A498 renal
  TGI: 9.01 µM
ACHN renal
  GI50: 0.397 µM
  TGI: 2.41 µM and 2.85 µM
DU-145 prostate
  TGI: 8.55 µM
EKVX NSCLC
  TGI: 27.2 µM
K-562 leukemia
  TGI: 14.5 µM
MOLT-4 leukemia
  TGI: 0.523 µM and 0.137 µM
NCI-H23 lung
  TGI: 6.17 µM and 4.32 µM
PC-3 prostate
  TGI: 31.9 µM
SF-268 CNS
  TGI: 9.38 µM and 12.8 µM
T-47D breast
  TGI: 36.9 µM

## Clc1ccc(N/N=C(\c2ccccc2)c2ccccn2)nc1
A498 renal
  GI50: 0.133 µM
  TGI: 16.4 µM and > 100 µM
ACHN renal
  GI50: 0.0619 µM
  TGI: > 36.8 µM and 12.5 µM
DU-145 prostate
  GI50: 0.243 µM
  TGI: > 100 µM
EKVX NSCLC
  GI50: 0.0726 µM
K-562 leukemia
  GI50: 0.0406 µM
  TGI: > 100 µM
MOLT-4 leukemia
  GI50: 0.0367 µM
NCI-H23 lung
  GI50: 0.279 µM
  TGI: > 77.9 µM and 12.9 µM
PC-3 prostate
  GI50: 0.112 µM
  TGI: > 67.8 µM and 28.9 µM
SF-268 CNS
  GI50: 0.324 µM
  TGI: 21.1 µM and 4.08 µM
T-47D breast
  GI50: < 0.0163 µM
  TGI: > 100 µM

## CN(C)CCCN1c2ccc(O)cc2Sc2ccc(Cl)cc21
A498 renal
  TGI: 31.6 µM
ACHN renal
  TGI: 28.1 µM
DU-145 prostate
  TGI: 31.8 µM
EKVX NSCLC
  TGI: 35.9 µM
K-562 leukemia
  TGI: 16.8 µM
MOLT-4 leukemia
  TGI: 17.5 µM
NCI-H23 lung
  TGI: 34 µM
PC-3 prostate
  TGI: 18 µM
SF-268 CNS
  TGI: 21 µM
T-47D breast
  TGI: 38.7 µM

## C/C(=C1/N=C(c2ccccc2)OC1=O)c1ccccc1
A498 renal
  TGI: > 100 µM
ACHN renal
  TGI: > 100 µM
DU-145 prostate
  TGI: > 100 µM
EKVX NSCLC
  TGI: > 100 µM
K-562 leukemia
  TGI: > 100 µM
MOLT-4 leukemia
  TGI: > 100 µM
NCI-H23 lung
  TGI: > 100 µM
PC-3 prostate
  TGI: > 100 µM
SF-268 CNS
  TGI: > 100 µM
T-47D breast
  TGI: > 100 µM

## Oc1c(Cl)cc(CN(Cc2cc(Cl)c(O)c(Cl)c2)C2CCCCC2)cc1Cl
A498 renal
  TGI: > 100 µM
ACHN renal
  TGI: > 100 µM
DU-145 prostate
  TGI: > 100 µM
EKVX NSCLC
  TGI: > 100 µM
K-562 leukemia
  TGI: > 100 µM
MOLT-4 leukemia
  TGI: > 100 µM
NCI-H23 lung
  TGI: > 100 µM
PC-3 prostate
  TGI: > 100 µM
SF-268 CNS
  TGI: > 100 µM
T-47D breast
  TGI: > 100 µM

## Cc1ccc(N(/C=C/C(=O)C(F)(F)F)CC(=O)c2ccc(Cl)c(Cl)c2)cc1
A498 renal
  GI50: 8.05 µM
  TGI: 20.9 µM
ACHN renal
  GI50: 12.2 µM
  TGI: 24.6 µM
DU-145 prostate
  GI50: 5.77 µM
  TGI: 20.3 µM
EKVX NSCLC
  GI50: 3.54 µM
  TGI: 18.9 µM
K-562 leukemia
  GI50: 3.37 µM
  TGI: 11.7 µM
MOLT-4 leukemia
  GI50: 4.48 µM
  TGI: 19.9 µM
NCI-H23 lung
  GI50: 10.3 µM
  TGI: 21.9 µM
PC-3 prostate
  GI50: 7.06 µM
  TGI: 20 µM
SF-268 CNS
  GI50: 12.5 µM
  TGI: 25 µM
T-47D breast
  GI50: 12.2 µM
  TGI: 25.8 µM
